According to PubChem BioAssay AID328 (DTP/NCI, 2004):
Values joined by “and” are separate entries in the source; they are usually repeats but may differ in a detail not shown here. Identical values can stand only once. Toxic doses and inconclusive results are not listed. Rule for the calls: active = survival T/C of 150% or more; inactive = T/C below 125% in these data.

System: BDF1 mice, P388 leukemia ip, median survival T/C
Assay: NCI In Vivo Anticancer Drug Screen. Data for tumor model P388 Leukemia (intraperitoneal) in B6D2F1 (BDF1) mice
Details: endpoint: median survival time, higher = longer survival
In short: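 Antitumour effect was judged in vivo: survival in drug-treated mice, normalised to that of vehicle-dosed controls, gives the reported T/C.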

[1] = dose: 25.0 mg/kg/injection, schedule: Q01DX009 (ip), vehicle: saline with Tween-80
[2] = dose: 25.0 mg/kg/injection, schedule: Q04DX003 (ip), vehicle: saline with Tween-80
[3] = dose: 50.0 mg/kg/injection, schedule: Q01DX009 (ip), vehicle: saline with Tween-80
[4] = dose: 50.0 mg/kg/injection, schedule: Q04DX003 (ip), vehicle: saline with Tween-80
[5] = dose: 100.0 mg/kg/injection, schedule: Q01DX009 (ip), vehicle: saline with Tween-80
[6] = dose: 100.0 mg/kg/injection, schedule: Q04DX003 (ip), vehicle: saline with Tween-80
[7] = dose: 100.0 mg/kg/injection, schedule: Q04DX003 (ip), vehicle: Klucel (hydroxypropylcellulose) (HPC)
[8] = dose: 200.0 mg/kg/injection, schedule: Q04DX003 (ip), vehicle: Klucel (hydroxypropylcellulose) (HPC)
[9] = dose: 100.0 mg/kg/injection, schedule: Q01DX009 (ip), vehicle: other
[10] = dose: 200.0 mg/kg/injection, schedule: Q01DX009 (ip), vehicle: other
[11] = dose: 200.0 mg/kg/injection, schedule: Q04DX003 (ip), vehicle: saline with Tween-80
[12] = dose: 400.0 mg/kg/injection, schedule: Q04DX003 (ip), vehicle: saline with Tween-80
[13] = dose: 100.0 mg/kg/injection, schedule: Q01DX001 (ip), vehicle: saline with Tween-80
[14] = dose: 200.0 mg/kg/injection, schedule: Q01DX001 (ip), vehicle: saline with Tween-80
[15] = dose: 12.5 mg/kg/injection, schedule: Q01DX009 (ip), vehicle: saline with Tween-80
[16] = dose: 200.0 mg/kg/injection, schedule: Q01DX009 (ip), vehicle: saline with Tween-80
[17] = dose: 400.0 mg/kg/injection, schedule: Q01DX001 (ip), vehicle: saline with Tween-80
[18] = dose: 400.0 mg/kg/injection, schedule: Q01DX009 (ip), vehicle: saline with Tween-80
[19] = dose: 6.25 mg/kg/injection, schedule: Q01DX009 (ip), vehicle: saline with Tween-80

Measured: T/C

CC(=O)c1ccccc1OCC(O)CN1CCN(c2ccccc2)CC1 (centres undefined)
inactive: [1] 100 % of control | [2] 113 % of control | [3] 100 % of control | [4] 104 % of control | [5] 96 % of control | [6] 109 % of control

Nc1c(Br)cc(Br)c(C(=O)O)c1Br
inactive: dose: 50.0 mg/kg/injection, schedule: Q04DX003 (ip), vehicle: Klucel (hydroxypropylcellulose) (HPC) 100 % of control | [7] 100 % of control | [8] 95 % of control

COc1ccc(CN(CCOC(=O)c2ccc(OC)cc2)CCN(CCOC(=O)c2ccc(OC)cc2)Cc2ccc(OC)cc2)cc1
inactive: dose: 25.0 mg/kg/injection, schedule: Q01DX009 (ip), vehicle: other 89 % of control | dose: 25.0 mg/kg/injection, schedule: Q01DX009 (ip), vehicle: water 93 % of control | dose: 25.0 mg/kg/injection, schedule: Q04DX003 (ip), vehicle: water 95 % of control and 100 % of control | dose: 50.0 mg/kg/injection, schedule: Q01DX009 (ip), vehicle: other 91 % of control | dose: 50.0 mg/kg/injection, schedule: Q01DX009 (ip), vehicle: water 101 % of control | [9] 86 % of control | [10] 94 % of control | dose: 200.0 mg/kg/injection, schedule: Q01DX009 (ip), vehicle: water 110 % of control | dose: 300.0 mg/kg/injection, schedule: Q04DX003 (ip), vehicle: water 107 % of control | dose: 400.0 mg/kg/injection, schedule: Q01DX009 (ip), vehicle: water 95 % of control

CN(C)c1ccc(CC2Cc3ccccc3C2=O)cc1 (centres undefined)
inactive: [9] 104 % of control | [6] 90 % of control | [10] 108 % of control | [11] 100 % of control | [12] 95 % of control

Cn1c(=O)c2nc(-c3ccc(Cl)cc3)c(-c3ccc(Cl)cc3)nc2n(C)c1=O
inactive: [13] 110 % of control | [14] 112 % of control

O=C(Nc1ccc(C2=NCCN2)cc1)Nc1cccc(NC(=O)Nc2cccc(C3=NCCN3)c2)c1
inactive: [1] 105 % of control | [3] 90 % of control
active: [15] 150 % of control | dose: 16.5 mg/kg/injection, schedule: Q04DX003 (ip), vehicle: saline with Tween-80 266 % of control and 170 % of control | [2] 250 % of control and 190 % of control and 200 % of control | dose: 37.5 mg/kg/injection, schedule: Q04DX003 (ip), vehicle: saline with Tween-80 283 % of control and 185 % of control | [4] 177 % of control

N=c1ccn2c(n1)OC1C(O)C(COS(=O)OC3C(CO)OC4C3Oc3nc(=N)ccn34)OC12 (centres undefined)
active: [5] 161 % of control | [16] 175 % of control
inactive: [1] 122 % of control

COC(=O)C(CC(=O)c1ccccc1)NCc1ccccc1 (centres undefined)
inactive: [13] 100 % of control | [14] 95 % of control | [17] 100 % of control

NC(N)=NCCCC(NC(=O)OCc1ccccc1)C(=O)O (centres undefined)
inactive: [7] 100 % of control | [8] 104 % of control | dose: 400.0 mg/kg/injection, schedule: Q04DX003 (ip), vehicle: Klucel (hydroxypropylcellulose) (HPC) 100 % of control

c1ccc2cc3c(cc2c1)Cn1c-3nc2ccccc21
inactive: [5] 100 % of control | [16] 100 % of control | [18] 95 % of control

COC(OC)c1nc(SC)[nH]c(=O)c1C[N+](C)(C)C
inactive: [6] 100 % of control | [11] 100 % of control | [12] 113 % of control

Cc1ccc(NC(=O)c2ccc(Cl)cc2)c(Br)c1
inactive: [13] 100 % of control | [14] 109 % of control | [17] 100 % of control

C=C1C(=O)[C@]23C[C@H]1CC[C@H]2[C@@]12CO[C@@H](O)[C@@H]1C(C)(C)[C@@H](O)C[C@@H]2OC3=O
inactive: dose: 3.13 mg/kg/injection, schedule: Q01DX009 (ip), vehicle: saline with Tween-80 112 % of control | [19] 118 % of control | [1] 117 % of control | [3] 119 % of control and 121 % of control | [5] 112 % of control | [16] 120 % of control

CCC1(C)CCC2=C(CCC3C(C)(C(=O)O)CCCC23C)C1 (centres undefined)
inactive: [3] 100 % of control | [4] 96 % of control | [5] 87 % of control | [16] 100 % of control | [11] 96 % of control

C=CCn1c(=S)[nH]c2ccccc2c1=O
inactive: [5] 100 % of control | [16] 95 % of control | [18] 100 % of control

Cc1ccc(C(c2ccc(C)cc2)C(Cl)(Cl)Cl)cc1
inactive: dose: 100.0 mg/kg/injection, schedule: Q01DX001 (ip), vehicle: saline sonified 100 % of control | dose: 200.0 mg/kg/injection, schedule: Q01DX001 (ip), vehicle: saline sonified 100 % of control | dose: 400.0 mg/kg/injection, schedule: Q01DX001 (ip), vehicle: saline sonified 90 % of control

O=C(Nc1ccccc1)c1c(-c2ccccc2)oc2ccccc2c1=O
inactive: dose: 50.0 mg/kg/injection, schedule: Q04DX002 (ip), vehicle: saline with Tween-80 95 % of control | dose: 100.0 mg/kg/injection, schedule: Q04DX002 (ip), vehicle: saline with Tween-80 115 % of control | dose: 200.0 mg/kg/injection, schedule: Q04DX002 (ip), vehicle: saline with Tween-80 100 % of control

Nc1ccc(OCCCCNC(=O)c2ccc(S(=O)(=O)F)cc2)c(Cl)c1
inactive: dose: 0.78 mg/kg/injection, schedule: Q01DX009 (ip), vehicle: saline with Tween-80 94 % of control | dose: 1.56 mg/kg/injection, schedule: Q01DX009 (ip), vehicle: saline with Tween-80 111 % of control | dose: 3.12 mg/kg/injection, schedule: Q01DX009 (ip), vehicle: saline with Tween-80 102 % of control | [19] 100 % of control | [15] 102 % of control | [1] 86 % of control and 100 % of control and 115 % of control | [3] 110 % of control | [5] 117 % of control | [6] 103 % of control | [16] 110 % of control | [11] 99 % of control

CCCCCCCCCCCCCC[N+](C)(C)CCCCCCCCCCCCCC
inactive: dose: 6.25 mg/kg/injection, schedule: Q01DX009 (ip), vehicle: saline 120 % of control | dose: 16.5 mg/kg/injection, schedule: Q01DX009 (ip), vehicle: saline 87 % of control | dose: 17.0 mg/kg/injection, schedule: Q01DX009 (ip), vehicle: saline 119 % of control | dose: 25.0 mg/kg/injection, schedule: Q04DX003 (ip), vehicle: saline 118 % of control | dose: 37.0 mg/kg/injection, schedule: Q01DX009 (ip), vehicle: saline 119 % of control | dose: 50.0 mg/kg/injection, schedule: Q04DX003 (ip), vehicle: saline 104 % of control

C[C@]12CC[C@H](OC(=O)Cc3ccc(N(CCCl)CCCl)cc3)CC1=CC[C@@H]1[C@@H]2CC[C@]2(C)C(=O)CC[C@@H]12
inactive: dose: 115.0 mg/kg/injection, schedule: Q04DX003 (ip), vehicle: saline with Tween-80 113 % of control
active: [16] 215 % of control | dose: 400.0 mg/kg/injection, schedule: Q04DX003 (ip), vehicle: alcohol 159 % of control | dose: 600.0 mg/kg/injection, schedule: Q04DX003 (ip), vehicle: alcohol 272 % of control

CN(C)c1ccc(/C=C/c2ccnc3c(Cl)cccc23)cc1
inactive: [3] 94 % of control | [5] 98 % of control | [16] 100 % of control

Clc1ccc2c(c1)-c1ccccc1C1=NCCN12
inactive: dose: 2.5 mg/kg/injection, schedule: Q04DX003 (ip), vehicle: Klucel (hydroxypropylcellulose) (HPC) 110 % of control | dose: 4.4 mg/kg/injection, schedule: Q04DX003 (ip), vehicle: Klucel (hydroxypropylcellulose) (HPC) 100 % of control | dose: 5.0 mg/kg/injection, schedule: Q01DX009 (ip), vehicle: Klucel (hydroxypropylcellulose) (HPC) 95 % of control | dose: 5.0 mg/kg/injection, schedule: Q04DX003 (ip), vehicle: Klucel (hydroxypropylcellulose) (HPC) 100 % of control | dose: 6.6 mg/kg/injection, schedule: Q04DX003 (ip), vehicle: Klucel (hydroxypropylcellulose) (HPC) 91 % of control | dose: 10.0 mg/kg/injection, schedule: Q01DX009 (ip), vehicle: Klucel (hydroxypropylcellulose) (HPC) 113 % of control | dose: 10.0 mg/kg/injection, schedule: Q04DX003 (ip), vehicle: Klucel (hydroxypropylcellulose) (HPC) 95 % of control | dose: 15.0 mg/kg/injection, schedule: Q04DX003 (ip), vehicle: Klucel (hydroxypropylcellulose) (HPC) 91 % of control | dose: 20.0 mg/kg/injection, schedule: Q01DX009 (ip), vehicle: Klucel (hydroxypropylcellulose) (HPC) 113 % of control
